Measured values taken from PMC5615050 (Scientific Reports, 2017).

target: Bac-NA^H274Y H1N1 (Influenza A virus, UniProt P03470, H259Y); test: biochemical

Structure (SMILES) | IC50 [µM]
CC12CCC(O)CC1CCC1C2CC(O)C2(C)C(C3=CC(=O)OC3)CCC12O (stereo not drawn) [BPR1P0007S0] | > 40
CC1OC(OC2CC(O)C3(CO)C4C(O)CC5(C)C(C6COC(O)C6)CCC5(O)C4CCC3(O)C2)C(O)C(O)C1O (stereo not drawn) [BPR1P0003S0] | > 40
CC12CCC(O)CC1CCC1C2CCC2(C)C(C3=CC(=O)OC3)CCC12O (stereo not drawn) [BPR1P0008S0] | > 40
